“Also recorded” adds a separate entry of the source. Read-outs that look alike come from different tables or passages of the source.
Assays:
primary murine microglia = assay: Immunostaining of primary microglia (Iba1+ area, DAPI+ nuclei) after CSF-1 stimulation; format: cell-based, mouse; details: Mus musculus, Microglia
Method: Primary mouse microglia were suspended at a concentration of 5×10^5 cells/mL and 100 μL of this cell suspension was added to the inner 60 wells of three 96-well plates. Microglia cells were allowed to rest overnight at 37° C., 5% CO2. […] Cells were then stimulated with 100 ng/mL recombinant mouse CSF-1 for 24 hours. After stimulation, the culture supernatant was removed from each well and aliquoted into two different 96-well plates for subsequent ELISA assays. Plates were fixed with 4% PFA for future immunocytochemistry analysis. Following the stimulation, cells were fixed with 4% PFA for 20 minutes at room temperature. Cells were then rinsed in PBS, washed 3×5 minutes in 0.2% PBT (0.2% Triton X-100 in PBS) and blocked with 10% donkey serum/0.2% PBT for 1 hour at room temperature. […] After staining, plates were imaged on the IN Cell Analyzer 2200 with 9 fields of view acquired per well. […] A one-way ANOVA was used to determine the statistical significance of differences between samples. […] Following a microglial stimulation, immunocytochemistry was completed with Iba1, Ki67, and DAPI to determine microglial morphology, proliferative state, and number. InCell imaging microsope and analysis software was used to quantify Iba1^+ area, and the number of DAPI^+ nuclei within the cultures.

[1] = system: MCP-1 production in primary murine microglial cells; assay: MCP-1 ELISA, primary mouse microglia after CSF-1 stimulation; format: cell-based; details: Mus musculus, Microglia, 24 h, read-out: IC50, MCP-1 production
Method: (§1) Primary mouse microglia were suspended at a concentration of 5×10^5 cells/mL and 100 μL of this cell suspension was added to the inner 60 wells of three 96-well plates. Microglia cells were allowed to rest overnight at 37° C., 5% CO2. […] Cells were then stimulated with 100 ng/mL recombinant mouse CSF-1 for 24 hours. After stimulation, the culture supernatant was removed from each well and aliquoted into two different 96-well plates for subsequent ELISA assays. Plates were fixed with 4% PFA for future immunocytochemistry analysis.

CYP3A4 = CYP3A4 (Homo sapiens (Human), UniProt P08684); assay: CYP inhibition in human liver microsomes, CYP3A4; format: in vitro ADME
Chain of CYP3A4 (P08684 whole entry): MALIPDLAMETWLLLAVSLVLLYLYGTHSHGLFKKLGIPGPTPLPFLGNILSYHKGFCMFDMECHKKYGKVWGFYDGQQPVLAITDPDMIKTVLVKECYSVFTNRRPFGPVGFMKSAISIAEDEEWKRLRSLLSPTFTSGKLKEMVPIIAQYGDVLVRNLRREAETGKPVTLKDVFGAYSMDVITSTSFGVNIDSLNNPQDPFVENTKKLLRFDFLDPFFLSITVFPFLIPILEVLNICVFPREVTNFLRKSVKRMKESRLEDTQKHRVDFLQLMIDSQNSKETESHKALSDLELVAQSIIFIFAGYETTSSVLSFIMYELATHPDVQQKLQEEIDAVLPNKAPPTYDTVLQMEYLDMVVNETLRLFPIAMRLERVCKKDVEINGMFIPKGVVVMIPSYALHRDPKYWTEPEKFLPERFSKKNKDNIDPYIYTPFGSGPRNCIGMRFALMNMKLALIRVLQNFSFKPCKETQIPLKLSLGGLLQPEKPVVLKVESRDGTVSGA
Method: The objective of this assay method was to determine the inhibitory potential of test articles, in vitro, against specific cytochrome P450 (CYP) enzymes, using human liver microsomes (HLMs). The test compounds were diluted from pure DMSO stocks to a final test concentration range of 10 μM-0.07 μM in a 0.5% DMSO solution. […] After incubation, the samples were extracted, and protein precipitated in acetonitrile containing 0.1% formic acid. The samples were centrifuged to remove excess protein, and were analyzed by LDTD/MS/MS to determine IC50 values. Key concentrations of substrates were as follows: CYP2D6 Substrate—Dextromethorphan at 10 μM. CYP3A4 Substrates—Testosterone at 60 μM, and Midazolam at 2 μM. Dextromethorphan and testosterone were incubated with the test compounds for 30 minutes each. Midazolam was incubated with the test compounds for 10 minutes.

[2] = system: primary mouse microglia (wild type, SOD1); assay: CellTiter Glo 2.0 viability assay, wild-type and SOD1 primary microglia; format: cell-based; details: wild type and SOD1 cells
Method: (§2) The impact of a deuterated CSF-1R inhibitor of this disclosure on cytokine/chemokine production following CSF-1 or LPS stimulation in wild-type versus SOD1 mutant primary microglial cells was examined in the following experiments.
(§3) Methods Treatment and Stimulation of Primary Microglial Cells
as §1, with “each well” for “the inner 60 wells”, “a” for “three”, “plate.” for “plates.”, “M-CSF for 30 minutes or 10 ng/mL lipopolysaccharide” for “CSF-1”, “assays.” for “assays. Plates were fixed with 4% PFA for future immunocytochemistry analysis.”
Cell viability was determined using Promega's Cell Titer Glo Luminescent Cell Viability Assay. […] 100 μL was transferred from each well to a white plate and luminescence was read immediately on the FlexStation3 plate reader.
Primary murine microglia were plated at 50,000 cells per well and rested overnight. […] Cell viability was assessed after 24 hours utilizing Promega's Cell Titer Glo Assay Kit. Both CSF-1 and LPS stimulation induced a slight increase in the cell viability readout versus unstimulated cells (FIGS. 8A-8B and FIGS. 9A-9B).

[3] = system: MCP-1 production in primary mouse microglia (wild type, SOD1); assay: MCP-1 ELISA, wild-type and SOD1 primary microglia, CSF-1 stimulation; format: cell-based; details: CSF-1 stimulation, 50, 100, 200 nM, wild type and SOD1 cells
Method: as §2, §3
as §1, with “each well” for “the inner 60 wells”, “a” for “three”, “plate.” for “plates.”, “M-CSF for 30 minutes or 10 ng/mL lipopolysaccharide” for “CSF-1”, “assays.” for “assays. Plates were fixed with 4% PFA for future immunocytochemistry analysis.”
(§4) Culture supernatants were assayed with the Quantikine Mouse MCP-1 ELISA kit from R&D Systems (cat #SMJE00B). Samples were diluted 1:10 with Calibrator Diluent. Fifty microliters of Assay Diluent were first added to each well. Fifty microliters of Standards, Assay Control and diluted Sample were then added to the wells. The plate was mixed by gently tapping the frame, then sealed with an adhesive strip. The plate incubated for 2 hours at room temperature. […] After incubation, the acid stop solution was added to each well, and the plate was read on the ELISA plate reader at 450 nm.

[4] = system: IL-12p40 production in primary mouse microglia (wild type, SOD1); assay: IL-12p40 ELISA, wild-type and SOD1 primary microglia, LPS stimulation; format: cell-based; details: LPS stimulation, 50, 100, 200 nM, wild type and SOD1 cells
Method: as §2, §3
as §1, with “each well” for “the inner 60 wells”, “a” for “three”, “plate.” for “plates.”, “M-CSF for 30 minutes or 10 ng/mL lipopolysaccharide” for “CSF-1”, “assays.” for “assays. Plates were fixed with 4% PFA for future immunocytochemistry analysis.”
as §4, with “Cell culture supernatants were” for “Culture supernatants were”, “Quantikine Mouse IL-12p40 ELISA kit” for “Quantikine Mouse MCP-1 ELISA kit”, “Systems (cat #MP400). Samples were” for “Systems (cat #SMJE00B). Samples were”, “then added in singlicate to the” for “then added to the”

[5] = midazolam 2 μM, 10 min, read-out: CYP inhibition mean IC50 (INH) Isoform: CYP3A4 Substrate: midazolam
[6] = testosterone 60 μM, 30 min, read-out: CYP inhibition mean IC50 (INH) Isoform: CYP3A4 Substrate: testosterone

Compound `[2H]c1nc2cccnc2n1Cc1cc(OC)c2c(c1)O[C@@H](C)[C@H](c1ccc(OC)nc1)O2` [Compound 6, 3-(((2S,3S)-8-methoxy-2-(6-methoxypyridin-3-yl)-3-methyl-2,3-dihydrobenzo[b][1,4]dioxin-6-yl)methyl)-3H-imidazo[4,5-b]pyridine-2-d] has an IC50 (primary murine microglia; read-out: IC50 for DAPI (DAPI+ cell number)) of 248 nM, an IC50 (primary murine microglia; read-out: IC50 for Iba1 (Iba1+ area)) of 84.6 nM and an IC50 [1] of 23.2 nM. For the same compound, the IC50 (CYP3A4; [5]) was greater than 10000 nM, the IC50 (CYP3A4; [6]) was greater than 10000 nM and the cell viability ([2]; CSF-1 stimulation, 50, 100, 200 nM) was “no toxic effect on microglia at the concentrations assessed; also recorded: slightly reduced the CSF-1-induced increase in cell viability”. For the same compound, the cell viability ([2]; LPS stimulation, 50, 100, 200 nM) was “no deleterious effect on cell viability”, the MCP-1 production [3] was “significantly reduced MCP-1 production in a concentration dependent manner” and the IL12-p40 production [4] was “significantly reduced IL12-p40 production in a concentration dependent manner”.

In the case of `COc1ccc(C2Oc3c(OC)cc(Cn4cnc5cccnc54)cc3O[C@H]2C)cn1` (some centres unmarked) [Compound 24], the IC50 (CYP3A4; [5]) is reported as greater than 10000 nM and the IC50 (CYP3A4; [6]) is reported as greater than 10000 nM.

From US11530216B2, “Deuterated colony stimulating factor-1 receptor (CSF-1R) inhibitors” (Genzyme Corporation, priority 2020, dated 2022)
